Test results taken from USRE33897E, “Synthetic polypeptides and antibodies related to Epstein-Barr virus nuclear antigen” (Scripps Clinic and Research Foundation, priority 1989, dated 1992).
Residues, ends and D or L forms follow the SMILES beside them.

Legend:
[1] = Circular dichroism spectroscopy of polypeptides in phosphate buffered saline; assay type: physicochemical; settings: 1 mg/ml
Procedure: The conformational properties of the polypeptides were investigated to elucidate any secondary structure that might be necessary for polypeptide immunoreaction with human anti-EBNA antibodies. The polypeptides were dissolved at a concentration of 1 mg/ml in phosphate-buffered saline (PBS). Spectra were taken using 1 ml samples in a Cary 61 spectropolarimeter (Cary Instruments, Applied Physics Corp., Monrovia, Calif.) interfaced and automated with a Digital Equipment Corporation 11/02 computer (Digital Equipment Corporation, Maynard, Mass.).

anti-EBNA antibodies = assay: ELISA with polypeptide as solid phase antigen, detecting anti-polypeptide antibodies in sera; assay type: binding, human; settings: for Reaction of VCA- sera with polypeptide: panel of 19 VCA- sera; for Reaction of sera of clinically normal VCA+ individuals with polypeptide: two serum dilutions; for Average titer of Progressive Systemic Schlerosis (PSS) patients to polypeptide compared with normals: high and low serum dilutions; for Number of 91 anti-EBNA positive (ACIF) sera positive against polypeptide: sera at 1:20 dilution
Procedure: A solution containing a substrate for the enzyme label such as hydrogen peroxide for peroxidase and a color-forming dye precursor such as o-phenylenediamine, or p-nitrophenyl phosphate for alkaline phosphatase is thereafter admixed with the solid phase.
Anti-peptide antibody binding and inhibition studies were carried out by an enzyme-linked immunosorbent assay (ELISA) as described below.
Briefly, microtiter wells (Costar, #3590, Cambridge, Mass.) were coated with individual polypeptides as antigens by adding 100 microliters (ul) of BBS [10 millimoler (mM) sodium borate (pH 8.3), 150 mM NaCl] containing polypeptide at a concentration of 10 micrograms per milliliter (ug/ml). Contact between the wells and antigen-containing solution was maintained for a predetermined time, typically 15 minutes, and at 20 degrees C., to form an antigen-coated solid phase. The solid and liquid phases were separated and the wells were washed three times with BBS.
Non-specific binding sites were blocked by admixing 200 microliters of 1% bovine serum albumin (BSA) in each well to form another solid-liquid phase admixture, and maintaining that solid-liquid phase admixture for 30 minutes, at 20 degrees C. The phases were separated and excess, unbound BSA was removed by washinq three times with BBS.
[…] Contact between the diluted sera and the antigen-coated solid phase was maintained for a predetermined time such as 1 hour, and at 20 degrees C., for an immunoreactant to form. The solid and liquid phases were separated, and the solid phase; i.e., antigen-coated, immunoreactant-containing wells, was then washed three times with BBS.
The antibodies in human sera that immunoreacted with an adsored polypeptide were detected using an indicating means comprising alkaline phosphatase-conjugated goat anti-human Ig antibody (Tago, Burlington, CA). The antibodies in rabbit sera that immunoreacted with an adsorbed polypeptide were detected using an indicating means comprising alkaline phosphatase-conjugated goat anti-rabbit Ig antibody (Kirkegard & Perry Laboratories, Inc., Gaithersburg, Md.). In either instance, 100 microliters of the indicating antibody diluted 1:300 in BBS were added per well to form a further solid-liquid phase composition. This solidliquid phase composition was maintained for a predetermined time, one hour, for the formation of a reaction product between the human antibodies bound to the solid phase and the indicating means, and at 20 degrees C.

With `CC[C@H](C)[C@H](N)C(=O)N[C@@H](CCSC)C(=O)N[C@@H](CO)C(=O)N[C@@H](CC(=O)O)C(=O)N[C@@H](CCC(=O)O)C(=O)NCC(=O)N1CCC[C@H]1C(=O)NCC(=O)N[C@H](C(=O)NCC(=O)N[C@@H](CC(N)=O)C(=O)NCC(=O)N[C@@H](CC(C)C)C(=O)NCC(=O)N[C@@H](CCC(=O)O)C(=O)O)[C@@H](C)O` [Polypeptide F12, H--Ile--Met--Ser--Asp--Glu--Gly--Pro--Gly--Thr--Gly--Asn--Gly--Leu--Gly--Glu--OH] (H-IMSDEGPGTGNGLGE-OH) the “Conformation indicated by circular dichroism spectrum” value (shortened to “Conformation indicated”) [1] was “partial assumption of such conformation”, the “Reaction of VCA- sera with polypeptide” value (anti-EBNA antibodies) was “None of the VCA- sera were found to react positively” and the “Reaction of sera of clinically normal VCA+ individuals with polypeptide” value (from here on “Reaction of sera … with polypeptide”) (anti-EBNA antibodies) was “all of the VCA+ indiviuals were positive”.

In the case of `C[C@H](NC(=O)CNC(=O)[C@@H]1CCCN1)C(=O)N1CCC[C@H]1C(=O)NCC(=O)NCC(=O)N[C@@H](CO)C(=O)NCC(=O)N[C@@H](CO)C(=O)NCC(=O)N1CCC[C@H]1C(=O)O` [Polypeptide F13, H--Pro--Gly--Ala--Pro--Gly--Gly--Ser--Gly--Ser--Gly--Pro--OH] (H-PGAPGGSGSGP-OH), the “Conformation indicated” value [1] was “random conformation”, the “Reaction of VCA- sera with polypeptide” value (anti-EBNA antibodies) was “None of the VCA- sera were found to react positively” and the “Reaction of sera … with polypeptide” value (anti-EBNA antibodies) was “all of the VCA+ indiviuals were positive”.

With `C[C@H](NC(=O)CNC(=O)CNC(=O)CNC(=O)[C@H](C)NC(=O)CNC(=O)[C@H](C)NC(=O)CNC(=O)CNC(=O)[C@H](C)NC(=O)CNC(=O)CNC(=O)[C@H](C)NC(=O)CNC(=O)CN)C(=O)NCC(=O)O` [Polypeptide F14, H--Gly--Gly--Ala--Gly--Gly--Ala--Gly--Gly--Ala--Gly--Ala--Gly--Gly--Gly--Ala--Gly--OH] (H-GGAGGAGGAGAGGGAG-OH) the “Conformation indicated” value [1] was “very similar spectra”, the “Average titer of Progressive Systemic Schlerosis (PSS) patients to polypeptide compared with normals” value (“Average titer … compared with normals” for short) (anti-EBNA antibodies) was “relatively higher average titer” and the “Reaction of VCA- sera with polypeptide” value (anti-EBNA antibodies) was “None of the VCA- sera were found to react positively”. The “Number of 91 anti-EBNA positive (ACIF) sera positive against polypeptide” value (“Number of 91 anti-EBNA positive” below) (anti-EBNA antibodies) was 91 and the “Reaction of sera … with polypeptide” value (anti-EBNA antibodies) was “all of the VCA+ indiviuals were positive”.

With `C[C@H](NC(=O)CN)C(=O)NCC(=O)NCC(=O)N[C@@H](C)C(=O)NCC(=O)N[C@@H](C)C(=O)NCC(=O)NCC(=O)NCC(=O)N[C@@H](C)C(=O)NCC(=O)NCC(=O)N[C@@H](C)C(=O)NCC(=O)NCC(=O)O` [Polypeptide F15, H--Gly--Ala--Gly--Gly--Ala--Gly--Ala--Gly--Gly--Gly--Ala--Gly--Gly--Ala--Gly--Gly--OH] (H-GAGGAGAGGGAGGAGG-OH) the “Conformation indicated” value [1] was “very similar spectra”, the “Average titer … compared with normals” value (anti-EBNA antibodies) was “relatively higher average titer” and the “Reaction of VCA- sera with polypeptide” value (anti-EBNA antibodies) was “None of the VCA- sera were found to react positively”. For the same compound, the “Number of 91 anti-EBNA positive” value (anti-EBNA antibodies) was 91 and the “Reaction of sera … with polypeptide” value (anti-EBNA antibodies) was “all of the VCA+ indiviuals were positive”.

For `C[C@H](NC(=O)CNC(=O)CNC(=O)[C@H](C)NC(=O)CNC(=O)[C@H](C)NC(=O)CNC(=O)CNC(=O)[C@H](C)NC(=O)CNC(=O)[C@H](C)NC(=O)CNC(=O)CNC(=O)[C@H](C)NC(=O)CNC(=O)[C@H](C)NC(=O)CNC(=O)CN)C(=O)NCC(=O)N[C@@H](C)C(=O)NCC(=O)O` [Polypeptide F16, H--Gly--Gly--Ala--Gly--Ala--Gly--Gly--Ala--Gly--Ala--Gly--Gly--Ala--Gly--Ala--Gly--Gly--Ala--Gly--Ala--Gly--OH] (H-GGAGAGGAGAGGAGAGGAGAG-OH), the “Average titer … compared with normals” value (anti-EBNA antibodies) was “relatively higher average titer”, the “Reaction of VCA- sera with polypeptide” value (anti-EBNA antibodies) was “None of the VCA- sera were found to react positively” and the “Number of 91 anti-EBNA positive” value (anti-EBNA antibodies) was 91. The “Reaction of sera … with polypeptide” value (anti-EBNA antibodies) was “all of the VCA+ indiviuals were positive”.

For `C[C@H](NC(=O)CNC(=O)CNC(=O)[C@H](C)NC(=O)CNC(=O)[C@H](C)NC(=O)CNC(=O)[C@H](C)NC(=O)CNC(=O)[C@@H](NC(=O)CNC(=O)CNC(=O)[C@H](Cc1c[nH]cn1)NC(=O)[C@@H](NC(=O)CNC(=O)[C@@H](N)CCCCN)[C@@H](C)O)[C@@H](C)O)C(=O)NCC(=O)N[C@@H](C)C(=O)NCC(=O)O` [Polypeptide P27, H--Lys--Gly--Thr--His--Gly--Gly--Thr--Gly--Ala--Gly--Ala--Gly--Ala--Gly--Gly--Ala--Gly--Ala--Gly--OH] (H-KGTHGGTGAGAGAGGAGAG-OH), the “Conformation indicated” value [1] was “very similar spectra”, the “OD405 × 10^3 obtained with patient antibodies to polypeptide, average ± one standard deviation” value (anti-EBNA antibodies; VCA- Normals (n = 27), dilution 1:20) was 67 ± 23 OD405 × 10^3 and the “Average titer … compared with normals” value (anti-EBNA antibodies) was “relatively higher average titer”. The “Reaction of VCA- sera with polypeptide” value (anti-EBNA antibodies) was “None of the VCA- sera were found to react positively”, the “Number of 91 anti-EBNA positive” value (anti-EBNA antibodies) was 91 and the “Antibodies binding to polypeptide before and after EBV-induced infectious mononucleosis” value (anti-EBNA antibodies; sera of two subjects) was “absent before infection, but appeared afterward”. The “OD405 × 10^3 obtained with patient antibodies to polypeptide” value (anti-EBNA antibodies; serum MV post-mononucleosis, dilution 1:20) was 107 OD405 × 10^3, the “OD405 × 10^3 obtained with patient antibodies to polypeptide” value (anti-EBNA antibodies; serum MV pre-mononucleosis, dilution 1:20) was 15 OD405 × 10^3 and the “OD405 × 10^3 obtained with patient antibodies to polypeptide” value (anti-EBNA antibodies; serum SB post-mononucleosis, dilution 1:20) was 33 OD405 × 10^3. For the same compound, the “OD405 × 10^3 obtained with patient antibodies to polypeptide” value (anti-EBNA antibodies; serum SB pre-mononucleosis, dilution 1:20) was 11 OD405 × 10^3, the “OD405 × 10^3 obtained with patient antibodies to polypeptide” value (anti-EBNA antibodies; serum VCA + Normal 1, dilution 1:20) was 155 OD405 × 10^3 and the “OD405 × 10^3 obtained with patient antibodies to polypeptide” value (anti-EBNA antibodies; serum VCA + Normal 2, dilution 1:20) was 516 OD405 × 10^3. The “Reaction of sera … with polypeptide” value (anti-EBNA antibodies) was “all of the VCA+ indiviuals were positive”.
